# Columns and labels:
# [1] = test system: Arabidopsis plants; assay: Plant growth and phenotyping of PEP6 / PEP12 transgenic plants; assay type: in vivo, Arabidopsis thaliana; conditions: transgenic plant in soil; normal-sized plants 25 mm to 30 mm
# Text: Two libraries encoding six- and twelve-random amino acid cyclized peptides (denoted PEP6 and PEP12, respectively) were constructed in binary vectors (as illustrated in FIG. 9) using a Gateway cloning strategy and transformed into Arabidopsis. More than 1,500 transgenic plants with the PEP6 T-DNA inserts were isolated and more than 600 transgenic plants were isolated carrying the PEP12 insert, representing a survival ratio of 1.8% and 1.2% respectively under kanamycin selection. To ensure library representation in the population, DNA was prepared from at least fifty transgenic plants, including ten that had small rosette diameter (5 mm to 10 mm) (e.g., those having BARP sequences SEQ ID NO: 14, 16, 6, 19, 21, 23, 26, 28, 30, and 32) compared to normal-sized plants (25 mm to 30 mm; see Table 2). The nucleotide sequences of all amplified random peptide open reading frames (rpORFs) were different, indicating representation of library diversity was maintained throughout the cloning and transformation process. Several phenotypes were visually apparent. […] Some plants showing multiple growth defects were recorded in each phenotype. Bolting plants with multiple inflorescences were transformed with the PEP6 or PEP12 destination library through the floral dipping method (Clough and Bent, 1998, incorporated herein by reference). For selection, seeds were surface sterilized by 70% ethanol for 5 min and 10% bleach for 20 min. Surface-sterilized seeds were plated on ½× MS basal medium with 0.5% Phyto Agar (cat. # M10200 and # A20300, Research Products International) and 50 μg/ml kanamycin for selection. Transgenic seedlings were identified by GFP expression or resistance to kanamycin. Transformed seedlings were grown to the 3-5 true leaf stage on plates and transferred to soil. DNA was extracted from each seedling (Edwards et al., 1991 incorporated herein by reference) for inserted nucleotide sequence identification. An approximately 500 bp DNA fragment containing the random peptide ORF and part of pK7WG2D vector sequence was amplified using primers PEP-F and PEP-R (SEQ ID NOs: 35 and 36, respectively) listed in Table 4 and sequenced. Arabidopsis plants were grown in soil at 20° C. under 16 hour light/8 hour dark conditions. The characterization of phenotypic variations was based on the comparison among seedlings grown in the same pot or flat.
# [2] = test system: Arabidopsis thaliana plants; assay: Screening of library of transformed plants expressing candidate BARPs for new phenotypes; assay type: in vivo; conditions: for new phenotype associated with the BARP: plant of the library from which the BARP sequence was isolated; for phenotype: transgenic Arabidopsis thaliana expressing the BARP, scored from emergence to senescence
# Text: In the present example, the methods of the present disclosure were used to generate a library of test nucleic acids encoding a plurality of candidate BARPs, each having a core 6 amino acid random peptide sequence flanked by two cysteine residues. The sequences were also flanked by start and stop codons and Gateway® sequences, such as illustrated in FIG. 1. PCR was used with primers corresponding to the known Gateway flanking sequences to generate the test nucleic acid library. The oligonucleotides were then cloned into bacterial vectors including genes for kanamycin resistance to create a recombination vector library. The vectors were then moved to Agrobacterium tumefaciens strain […] and used to transform Arabidopsis thaliana plants. Seeds were collected from the transformed plants and used to grow new plants. These plants were observed from seedling through the plant lifecycle and observed for new phenotypes. Several new phenotypes emerged, DNA was extracted from the plants displaying new phenotypes, and the sequence of the candidate BARP from the plants was determined. The procedures and results are described in detail below.
# The test nucleic acid sequences were synthesized using conserved initiator and terminator sequences flanking 18 random nucleotides, which provides a peptide that is ten amino acids long, with six of the core amino acids randomized, following a Met-Ala-Cys and ending with a Cys-term. This template is illustrated in FIG. 1. In the present example, the corresponding nucleic acid sequence was […] (SEQ ID NO: 5; nucleotides 14-46 of SEQ ID NO: 1). The cysteine residues in this case provide potential for formation of disulfide bonds that may impart additional structure to the adjacent amino acid loop. Although in this example 18 random nucleotides (identified as “N” in SEQ ID NOs: 1 and 5) were used, any number may be used, as long as it is a multiple of three.
# To construct the library of random-core BARP sequences, the above DNA sequence was synthesized as an oligonucleotide sequence, along with flanking sequences corresponding to the Gateway® recombination sequences. The middle portion of the sequence, represented by “N” in FIG. 1, were randomized nucleotides. Known synthesis techniques were used to build the sequences, resulting in a library of PCR products containing test nucleic acid sequences (start codon, spacer codon, cysteine codon, 18 random nucleotides encoding a core candidate BARP sequence, second cysteine codon, and stop codon) flanked by Gateway recombination sequences. Although Gateway® sequences were used in the present examples, other recombination cloning primer sequences could be used or specifically designed.
# The library of PCR products containing random test sequences was amplified using PCR based on flanking primers containing Gateway recombination sequences. These reactions produced a population of PCR products each containing the core peptide test sequence flanked by Gateway recombination sequences. These PCR products were introduced to the vector pDONR222 using Gateway recombination, and then transformed into E. coli genotype DH5α. The transformation vector also included the NPTII gene for kanamycin resistance. The E. coli cells were plated on kanamycin plates at low density to obtain single-colony separation. The single colonies each contained a separate plasmid bearing a random peptide sequence.
# The colonies were recovered from plates in liquid medium, and the plasmids were isolated. The isolated plasmids represented a library of many independent, random sequences (encoding candidate BARPs) flanked by ‘start’ and ‘stop’ sequences. […]
# [3] = test system: Arabidopsis thaliana plants; assay: Independent replication of peptide-induced phenotypes in independent transformant lines; assay type: in vivo; conditions: BARP sequence re-introduced into Arabidopsis thaliana
# Procedure: A number of first-transformed generation plants were prepared and phenotypes were observed using the methods described in Example 1, above. In this example some 12-amino-acid-long candidate BARPs were also synthesized and tested. The procedures were the same as for the 6-aa BARPs described in Example 1. These phenotypes were also observed to be stable and inherited in subsequent generations. To verify that the effects observed are due to the expressed peptide and not to other less-likely positional/insertional causes, in this Example, a substantial number of the of the candidate 6 and 12 amino-acid-long BARPs were sequenced and separately transformed into independent plants. […] One microliter was used in a PCR reaction under standard conditions, and using primers corresponding to the attachment (recombinational cloning sequences) of the Gateway vector, the corresponding BARP sequences was amplified. This sequences were then recombined into the pDONR222 vector and then re-ligated into the binary pKWDG2 over-expression vector as described above. This sequence was then re-introduced into Arabidopsis thaliana plants using the floral dipping strategy and selection as noted above. The seedlings were then analyzed for the phenotype as defined by the original transformant. Recapitulation of the phenotype in multiple, independent transformation events provided high evidence of a specific physiological effect of the peptide.
# [4] = test system: Arabidopsis thaliana seedlings; assay: Salt tolerance screen and root elongation on salt media; assay type: in vivo
# Procedure: Also, to test for phenotypes not readily observable under normal conditions, seeds were collected from all plants in sets of nine and stored together, then planted and screened in various stress conditions to identify additional phenotypes. For example, seeds were planted on plant-growth media containing […] to screen for seedlings showing resistance to salt. Populations of BARP containing plants have also been grown in soil under water-deficit stress, leading to identification of peptides that confer tolerance to drought stress up on further evaluation.
# Also, to test for phenotypes not readily observable under normal conditions, seeds were collected from all plants, stored, and later planted and screened in various stress conditions to identify additional phenotypes. […] Two lines thrived on the high-salt media, one of them resulting in a conspicuous root phenotype. […] The left-hand bars in the graph in FIG. 7A represent wild-type seedlings, and the right-hand bars show the effect of the peptide. Root elongation was measured four days after germination (Day 0) and then again at four-day intervals. Error bars represent standard error of the mean.
# [5] = test system: Arabidopsis seedlings; assay: Inhibition of hypocotyl elongation under different light conditions; assay type: in vivo, Arabidopsis thaliana
# Procedure: Seeds were surface sterilized using a brief treatment of 70% ethanol and then set to dry on sterile paper discs in a laminar flow hood. The seeds were placed on 1 mM KCl plus 1 mM CaCl2 media containing 1% Phyto Agar on 100 mm square plates and stratified for 48 h. The vertical plates were transferred to various light conditions of varying spectral quality and fluence rates (as described in FIGS. 12A-12B), or complete darkness. […] Plants grown in darkness were placed under one of the narrow bandwidth treatments wrapped in two layers of aluminum foil. After 96 h the plates were scanned and the seedlings were measured using ImageJ software, and the length of the seedlings was reported as a fraction of dark-grown seedling length.
sequence,measurement,setting,value
MACPNACFSC (chemically synthesized peptide sequence of BARP PEP6-33),rosette size,[1],9 mm
"MACSAHCSDC (chemically synthesized peptide sequence of BARP associated with abberrant seedling characteristics) [SEQ ID NO: 4, BARP associated with strange seedling characteristics]",new phenotype associated with the BARP,[2],aberrant seedling characteristics
"MACWTSSVLC (chemically synthesized peptide sequence of BARP CBF6AA-110 associated with large, flat leaves and small petioles)",phenotype,[2],tiny
same,phenotype in independent transformant lines,[3],"large, flat leaves with small petioles"
"MACPASVSVC (chemically synthesized peptide sequence of BARP 6AA-33.1 associated with salt resistance and elongated root growth) [PEP6-32, BARP associated with salt resistance, root growth and red light insensitivity]",rosette size,[1],27 mm
same,salt tolerance,[4]; plant-growth media containing 100 μM NaCl,salt tolerance
same,root elongation,"[4]; seedlings on vertical agar plates under light, versus wild-type",increase in root elongation
same,hypocotyl length versus controls,[5]; 0.5 μmol·m^−2·s^−1 blue light,slightly longer hypocotyls
same,hypocotyl length versus controls,"[5]; blue light, fluence rates of 2 and 10 μmol·m^−2·s^−1",differences were not observed
same,hypocotyl length versus wild-type controls,"[5]; constant red light, fluence rates of 1, 10 and 50 μmol·m^−2·s^−1, four lines",longer hypocotyls than wild-type controls
same,seedling growth versus wild-type,[5]; darkness,comparable to wild-type seedlings
same,hypocotyl length versus controls,[5]; far red light conditions,No significant differences
same,hypocotyl length versus other seedlings,[5]; white light,slightly longer hypocotyls
MACQLMWREC (chemically synthesized peptide sequence of BARP PEP6-28),rosette size,[1],8 mm
MACQQMLSGC (chemically synthesized peptide sequence of BARP PEP6-37),rosette size,[1],8 mm
MACQELTMWC (chemically synthesized peptide sequence of BARP PEP6-30),rosette size,[1],10 mm
MGCVCIEPYQRLRAKC (chemically synthesized peptide sequence of BARP 12AA-97 associated with arrested plant growth),phenotype,[2],died late
same,phenotype in independent transformant lines,[3],arrested plant growth
MACNCSSDGC (chemically synthesized peptide sequence of BARP PEP6-27),rosette size,[1],8 mm
MACWMSRMEC (chemically synthesized peptide sequence of BARP PEP6-12),rosette size,[1],5 mm
MACGKGSGLC (chemically synthesized peptide sequence of BARP associated with purple pigment accumulation in seed pods) [SEQ ID NO: 2],new phenotype associated with the BARP,[2],hyperaccumulation of purple pigments in seed pods
"MACKQAXQRC (chemically synthesized peptide sequence of BARP CBF6AA-85 associated with large, flat leaves and small petioles) [BARP; “X” represents a stop codon]",phenotype,[2],"tiny, curly leaves"
same,phenotype in independent transformant lines,[3],"large, flat leaves with small petioles"
MACSDVSVIC (chemically synthesized peptide sequence of BARP PEP6-38),rosette size,[1],8 mm
MACDFLADLC (chemically synthesized peptide sequence of BARP associated with bushy seedling phenotype) [SEQ ID NO: 3],new phenotype associated with the BARP,[2],“bushy” seedling with small and upright leaves
MACGGGCSAC (chemically synthesized peptide sequence of BARP PEP6-46) [PEPB-46],rosette size,[1],10 mm

# Source: patent US10801023B2, “Methods of identifying biologically active random peptides in plants and libraries of plants expressing candidate biologically active random peptides” (University of Florida Research Foundation, Inc., priority 2015, dated 2020)
